# Laboratory results: patent US11084824B2, “Pyrazolopyrimidine derivatives, preparation method thereof, and pharmaceutical composition for use in preventing or treating cancer, autoimmune disease and brain disease containing the same as an active ingredient” (Korea Research Institute of Chemical Technology, priority 2017, dated 2021)
# Columns and labels:
# [1] = molecular target: Bruton's tyrosine kinase (BTK) (Homo sapiens (Human), UniProt Q06187); assay: BTK enzyme inhibition assay (Cisbio HTRF kit); format: biochemical; conditions: 30 minutes reaction, fluorescence 665 nm/620 nm
# Experimental: BTK enzyme evaluation with each compound of examples of the invention was performed by using BTK enzyme inhibition diagnosis kit (Cisbio, Codolet, France). […] Then, EDTA (ethylenediaminetetraacetic acid) was added thereto in order to terminate the reaction. At this time, the EDTA solution contained curopium-containing antibody (antiphosphoresidue antibody) and straptavidin-XL665 (SA-XL665, Cisbio). After incubation for 1 hour, fluorescence was measured. The emission values of 665 nm and 620 nm excited at 337 nm were measured with Envision reader. IC50 values were determined using GraphPad prism (version 5). Herein, the curve indicates a nonlinear regression model, which was determined by logarithmic functions and reaction values.
# TMD8 cells = assay: TMD8 cell growth inhibition (WST-1, 72 hours); format: cell-based; conditions: Homo sapiens, TMD8 ABC type DLBCL cell line, WST-1, absorbance 450 nm
# Experimental: TDM-8 cells, the ABC (activated B-cell) type DLBCL (diffuse large B cell lymphoma) cell line sensitive to BTK signaling, were seeded in a 96-well plate at 30% confluency. Then, the compounds of the invention were treated thereto at different concentrations. 72 hours later, WST-1 reagent was added thereto. One hour later, absorbance was measured at 450 nm by using a spectramax spectrophotometer.
# Sequence of Bruton's tyrosine kinase (BTK) (Q06187 whole entry): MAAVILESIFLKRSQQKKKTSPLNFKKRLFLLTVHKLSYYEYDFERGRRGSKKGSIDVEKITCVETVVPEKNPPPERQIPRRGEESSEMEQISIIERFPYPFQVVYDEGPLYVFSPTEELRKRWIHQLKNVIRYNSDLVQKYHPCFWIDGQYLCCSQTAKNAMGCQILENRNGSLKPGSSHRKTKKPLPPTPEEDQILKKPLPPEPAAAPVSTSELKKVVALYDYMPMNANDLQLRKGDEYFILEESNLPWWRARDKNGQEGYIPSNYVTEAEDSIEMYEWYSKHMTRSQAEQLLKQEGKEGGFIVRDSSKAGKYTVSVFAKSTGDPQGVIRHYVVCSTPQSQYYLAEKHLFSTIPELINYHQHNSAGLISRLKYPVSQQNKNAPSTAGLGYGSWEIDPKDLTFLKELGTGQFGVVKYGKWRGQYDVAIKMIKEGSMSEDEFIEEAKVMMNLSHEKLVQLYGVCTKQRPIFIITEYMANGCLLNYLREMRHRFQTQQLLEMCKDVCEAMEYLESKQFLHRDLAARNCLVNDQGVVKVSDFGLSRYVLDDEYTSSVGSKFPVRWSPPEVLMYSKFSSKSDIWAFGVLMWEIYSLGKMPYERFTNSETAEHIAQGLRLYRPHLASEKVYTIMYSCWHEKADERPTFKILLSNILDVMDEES
IC50 [1] [nM],Compound,IC50 (TMD8 cells) [nM]
10,"Cc1cccc(C)c1Nc1nn(C)c2nc(Nc3ccc(C4CCNCC4)cc3)ncc12 [Comparative Example 1, N^3-(2,6-dimethylphenyl)-1-methyl-N^6-(4-(piperidine-4-yl)phenyl)-1H-pyrazolo[3,4-d]pyrimidine-3,6-diamine, reference compound]",–
20,"CC(=O)N1CCC(c2ccc(Nc3ncc4c(Nc5c(C)cccc5C)nn(C)c4n3)cc2)CC1 [Comparative Example 2, 1-(4-(4-(3-(2,6-dimethylphenylamino)-1-methyl-1H-pyrazolo[3,4-d]pyrimidine-6-ylamino)phenyl)piperidine-1-yl)ethaneone, reference compound]",–
386,"Cn1nc(Nc2c(Cl)cccc2Cl)c2cnc(Nc3ccc4c(c3)CN(C(=O)C(F)(F)F)CC4)nc21 [Example 11, 1-(7-(3-(2,6-dichlorophenylamino)-1-methyl-1H-pyrazolo[3,4-d]pyrimidine-6-ylamino)-3,4-dihydroisoquinoline-2(1H)-yl)-2,2,2-trifluoroethaneone]",243
1.2,"Cc1cccc(C)c1Nc1nn(C)c2nc(Nc3ccc4c(c3)CN(C)CC4)ncc12 [Example 17, N^3-(2,6-dimethylphenyl)-1-methyl-N^6-(2-methyl-1,2,3,4-tetrahydroisoquinoline-7-yl)-1H-pyrazolo[3,4-d]pyrimidine-3,6-diamine]",36
0.5,"Cc1cccc(C)c1Nc1nn(C)c2nc(Nc3ccc4c(c3)COCC4)ncc12 [Example 18, N^3(2,6-dimethylphenyl)-N^6 (isochroman-7-yl)-1-methyl-1H-pyrazolo[3,4-d]pyrimidine-3,6-diamine]",134
–,"Cc1cccc(C)c1Nc1n[nH]c2nc(Nc3ccc4c(c3)CNCC4)ncc12 [Example 19, N3-(2,6-dimethylphenyl)-N6-(1,2,3,4-tetrahydroisoquinoline-7-yl)-1H-pyrazolo[3,4-d]pyrimidine-3,6-diamine]",49.4
0.5,"Cc1cccc(C)c1Nc1nn(C)c2nc(Nc3ccc4c(c3)C(C)NCC4)ncc12 (centres unmarked) [Example 20, N^3-(2,6-dimethylphenyl)-1-methyl-N^6-(1-methyl-1,2,3,4-tetrahydroisoquinoline-7-yl)-1H-pyrazolo[3,4-d]pyrimidine-3,6-diamine]",8.28
0.2,"Cc1cccc(C)c1Nc1nn(C)c2nc(Nc3ccc4c(c3)CN(C(C)C)CC4)ncc12 [Example 21, N-(2,6-dimethylphenyl)-N^6 (2-isopropyl-1,2,3,4-tetrahydroisoquinoline-7-yl)-1-methyl-1H-pyrazolo[3,4-d]pyrimidine-3,6-diamine]",139
0.4,"Cc1cccc(C)c1Nc1nn(C)c2nc(Nc3ccc4c(c3)CN(C(=O)CO)CC4)ncc12 [Example 22, 1-(7-(3-(2,6-dimethylphenylamino)-1-methyl-1H-pyrazolo[3,4-d]pyrimidine-6-ylamino)-3,4-dihydroisoquinoline-2(1H)-yl)-2-hydroxyethanone]",46.4
0.3,"Cc1cccc(C)c1Nc1nn(C)c2nc(Nc3ccc4c(c3)CN(C(=O)C3CC3)CC4)ncc12 [Example 23, cyclopropyl(7-(3-(2,6-dimethylphenylamino)-1-methyl-1H-pyrazolo[3,4-d]pyrimidine-6-ylamino)-3,4-dihydroisoquinoline-2(1H)-yl)methanone]",87.9
–,"Cc1cccc(C)c1Nc1nn(C(C)C)c2nc(Nc3ccc4c(c3)CNCC4)ncc12 [Example 27, N^3 (2,6-dimethylphenyl)-1-isopropyl-N6-(1,2,3,4-tetrahydroisoquinoline-7-yl)-1H-pyrazolo[3,4-d]pyrimidine-3,6-diamine]",35.4
–,"Cc1cc(C)c(Cl)c(Nc2nn(C)c3nc(Nc4ccc5c(c4)CNCC5)ncc23)c1 [Example 38, N^3-(2-chloro-3,5-dimethylphenyl)-1-methyl-N^6-(1,2,3,4-tetrahydroisoquinoline-7-yl)-1H-pyrazolo[3,4-d]pyrimidine-3,6-diamine]",832
–,"Cn1nc(Nc2c(F)cccc2F)c2cnc(Nc3ccc4c(c3)CNCC4)nc21 [Example 42, N^3-(2,6-difluorophenyl)-1-methyl-N^6-(1,2,3,4-tetrahydroisoquinoline-7-yl)-1H-pyrazolo[3,4-d]pyrimidine-3,6-diamine]",397
–,"Cc1ccc(C)c(Nc2nn(C)c3nc(Nc4ccc5c(c4)CNCC5)ncc23)c1 [Example 45, N^3-(2,5-dimethylphenyl)-1-methyl-N^6 (1,2,3,4-tetrahydroisoquinoline-7-yl)-1H-pyrazolo[3,4-d]pyrimidine-3,6-diamine]",720
–,"Cc1ccc(C(=O)Nc2cccc(C(F)(F)F)c2)cc1Nc1nn(C)c2nc(Nc3ccc4c(c3)CNCC4)ncc12 [Example 52, 4-methyl-3-(1-methyl-6-(1,2,3,4-tetrahydroisoquinoline-7-ylamino)-1H-pyrazolo[3,4-d]pyrimidine-3-ylamino)-N-(3-(trifluoromethyl)phenyl)benzamide]",83.2
–,"Cc1ccc(NC(=O)Nc2cccc(C(F)(F)F)c2)cc1Nc1nn(C)c2nc(Nc3ccc4c(c3)CNCC4)ncc12 [Example 57, 1-(4-methyl-3-((1-methyl-6-((1,2,3,4-tetrahydroisoquinoline-7-yl)amino)-1H-pyrazolo[3,4-d]pyrimidine-3-yl)amino)phenyl)-3-(3-(trifluoromethyl)phenyl)urea]",221
–,"Cc1cccc(C)c1Nc1nn(C)c2nc(Nc3ccc4c(c3)CN(C)C(C)(C)C4)ncc12 [Example 66, N3-(2,6-dimethylphenyl)-1-methyl-N 6-(2,3,3-trimethyl-1,2,3,4-tetrahydroisoquinoline-7-yl)-1H-pyrazolo[3,4-d]pyrimidine-3,6-diamine]",28.5
–,"Cc1cccc(C)c1Nc1nn(C)c2nc(Nc3ccc4c(c3)C(C)N(C)C(C)(C)C4)ncc12 (centres unmarked) [Example 67, N3-(2,6-dimethylphenyl)-1-methyl-N 6-(1,2,3,3-tetramethyl-1,2,3,4-tetrahydroisoquinoline-7-yl)-1H-pyrazolo[3,4-d]pyrimidine-3,6-diamine]",23.6
–,"CC(=O)N1Cc2cc(Nc3ncc4c(Nc5c(C)cccc5C)nn(C)c4n3)ccc2C(C)(C)C1 [Example 68, 1-(7-((3-((2,6-dimethylphenyl)amino)-1-methyl-1H-pyrazolo[3,4-d]pyrimidine-6-yl)amino)-4,4-dimethyl-3,4-dihydroisoquinoline-2(1H)-yl)ethane-1-one]",121
–,"CC(=O)N1CCc2ccc(Nc3ncc4c(Nc5c(C)cccc5C)nn(C)c4n3)cc2C1C(C)C (centres unmarked) [Example 70, 1-(7-((3-((2,6-dimethylphenyl)amino)-1-methyl-1H-pyrazolo[3,4-d]pyrimidine-6-yl)amino)-1-isopropyl-3,4-dihydroisoquinoline-2(1H)-yl) ethane-1-one]",24.5
–,"CC(=O)N1Cc2cc(Nc3ncc4c(Nc5c(C)cccc5C)nn(C)c4n3)ccc2CC1(C)C [Example 71, 1-(7-((3-((2,6-dimethylphenyl)amino)-1-methyl-1H-pyrazolo[3,4-d]pyrimidine-6-yl)amino)-3,3-dimethyl-3,4-dihydroisoquinoline-2(1H)-yl)ethane-1-one]",114
–,"CC(=O)N1Cc2ccc(Nc3ncc4c(Nc5c(C)cccc5C)nn(C)c4n3)cc2C1 [Example 72, 1-(5-((3-((2,6-dimethylphenyl)amino)-1-methyl-1H-pyrazolo[3,4-d]pyrimidine-6-yl)amino)isoindolin-2-yl)ethane-1-one]",266
–,"Cc1cccc(C)c1Nc1nn(C)c2nc(Nc3ccc4c(c3)CN(C)C4)ncc12 [Example 74, N3-(2,6-dimethylphenyl)-1-methyl-N 6-(2-methylisoindolin-5-yl)-1H-pyrazolo[3,4-d]pyrimidine-3,6-diamine]",358
–,"Cc1cccc(C)c1Nc1nn(C)c2nc(Nc3ccc4c(c3)CCCC4)ncc12 [Example 75, N3-(2,6-dimethylphenyl)-1-methyl-N 6-(5,6,7,8-tetrahydronaphthalen-2-yl)-1H-pyrazolo[3,4-d]pyrimidine-3,6-diamine]",667
–,"C=CC(=O)Nc1ccc(Nc2ncc3c(Nc4c(C)cccc4C)nn(C)c3n2)cc1 [Example 76, N-(4-((3-((2,6-dimethylphenyl)amino)-1-methyl-1H-pyrazolo[3,4-d]pyrimidine-6-yl)amino)phenyl)acrylamide]",75.2
–,"Cc1cccc(C)c1Nc1nn(C)c2nc(Nc3ccc4c(c3)C(=O)NCC4)ncc12 [Example 77, 7-((3-((2,6-dimethylphenyl)amino)-1-methyl-1H-pyrazolo[3,4-d]pyrimidine-6-yl)amino)-3,4-dihydroisoquinoline-1(2H)-one]",146
–,"COCCOc1cc(C)c(Nc2nn(C)c3nc(Nc4ccc5c(c4)C(C(C)C)NCC5)ncc23)c(C)c1 (centres unmarked) [Example 78, N6-(1-isopropyl-1,2,3,4-tetrahydroisoquinoline-7-yl)-N 3-(4-(2-methoxyethoxy)-2,6-dimethylphenyl)-1-methyl-1H-pyrazolo[3,4-d]pyrimidine-3,6-diamine]",26.2
–,"COCCOc1cc(C)c(Nc2nn(C)c3nc(Nc4ccc5c(c4)C(C)(C)NCC5)ncc23)c(C)c1 [Example 79, N6-(1,1-dimethyl-1,2,3,4-tetrahydroisoquinoline-7-yl)-N 3-(4-(2-methoxyethoxy)-2,6-dimethylphenyl)-1-methyl-1H-pyrazolo[3,4-d]pyrimidine-3,6-diamine]",13
